# Data from patent US20160346249A1 (priority 2012, published 2016).
# Tests used:
# [1] = NADPH dependent metabolism, human liver microsomes; assay type: in vitro ADME
# Experimental: Bicifadine (10 μM) was used as the positive control and the formation of the lactam metabolites of bicifadine (M-12) was monitored.
# [2] = Anesthetized dog intravenous cardiovascular study; assay type: in vivo
# Experimental: Whole blood samples were collected via a cannulated femoral vein at 0, 10, 20, and 29 minutes (timed from the start of each dose administration).
# A separate group of 4 dogs was infused with vehicle only (30-60 mL over 90 minutes) for comparison. […] Whole blood samples were collected for determination of peak plasma concentrations (see Section 5.3.3) following infusion of each dose.
# [3] = Rat developmental toxicity study with toxicokinetics; assay type: in vivo; details: for AUC(0-t) / Cmax / Tmax: female, Crl:CD(SD)IGS BR, rat, in vivo, pregnant rats; for AUC(0-t): read-out: AUC0-24
# From the text: For the toxicology assessment, there were twenty-five mated females/group.
# Females that delivered early were necropsied on the day of delivery. […] The fetuses were weighed, sexed, and examined for external, visceral, and skeletal malformations and developmental variations.
# [4] = Rat CNS study (functional observational battery, locomotor activity); details: Crl:CD(SD)IGS BR, in vivo; for mean rearing counts lower than control, 2-minute open field: po; for mean rearing counts lower than control, 2-minute open field / mean urination values higher than control: 1 h
# Experimental: There were eight animals of each gender per group. Functional observational battery (FOB) assessments and automated 1-hour locomotor activity data were recorded for all animals 7 days prior to dose administration (pre-test), and again beginning 1 hour following dosing on Day 0. Following completion of the FOB and locomotor activity evaluations, all animals were euthanized and discarded.
# [5] = Single-dose (25 mg) gender study in males and females (DOV-947-005); assay type: in vivo, human; details: for AUC(0-inf) / AUC(0-t) / Cmax / Tmax / half-life: human, in vivo, single oral dose 25 mg
# in vitro = in vitro ADME; details: human, Caco-2, pH 7.4
# Experimental: (§1) (Kalamazoo, Mich.). […] Receiver solutions consisted of buffer only. Sequential samples of transported solute are taken at 20 minute intervals in duplicate over 2 hours and the concentration of the transported compound was determined by HPLC-UV/MS. Test sample concentration is determined by LC/MS. Permeability coefficients are calculated for each sampling interval, and averages from the intervals were determined. The apparent permeability coefficient Papp is calculated from the equation where dQ/dt is the rate of permeation of drug across the cells, C0 is the original concentration in donor compartment at time zero, and A is the area of the cell monolayer. Mass balance in the system is ascertained by comparing the sum of transported solute and remaining donor solute to the starting solution concentration. The integrity of the monolayers is verified by monitoring Lucifer yellow permeation and the known P-glycoprotein substrate […] is used as a positive control.
# Caco-2 cells = assay: in vitro; assay type: in vitro ADME; details: human, Caco-2, 2 h, 10 μM, pH 7.4
# Experimental: as §1
# [6] = 14-day mouse toxicity and toxicokinetic study; details: both, Crl:CD-1(ICR) BR, in vivo, po
# [7] = po, 3 mg/kg/day, 3 mg/kg/day, GD 6
# [8] = po, 3 mg/kg/day, 3 mg/kg/day, GD 17
# [9] = po, 20 mg/kg/day, 20 mg/kg/day, GD 6
# [10] = po, 20 mg/kg/day, 20 mg/kg/day, GD 17
smiles,measurement,setting,value
"O=C1NCC2(c3ccc(Cl)c(Cl)c3)CC12 (centres unmarked) [EB-10101, 5-(3,4-dichloro-phenyl)-3-aza-bicyclo[3.1.0]hexan-2-one]",amount formed with NADPH vs without NADPH,"[1]; HLM, from EB-1010 10 μM",~2 fold
same,share of lactam formed by enzymes other than CYPs or FMOs,[1]; human liver microsomes,about 50%
"Clc1ccc([C@]23CNC[C@H]2C3)cc1Cl [amitifadine, (+)-1-(3,4-dichlorophenyl)-3-azabicyclo[3.1.0]hexane]",hemolysis in derived plasma fractions,[2]; IV infusion 2-29 mg/kg cumulative,Dose-related hemolysis was apparent
same,change in BF,[2]; top dose,−57%
same,change in HR,[2]; top dose,+10%
same,change in PR interval vs baseline,[2]; top dose,−9%
same,change in QRS interval vs baseline,[2]; top dose,+2%
same,change in QTC interval vs baseline,[2]; top dose,+2%
same,change in femoral vascular resistance,[2]; top dose,+354%
same,AUC(0-t),"[3]; oral, 10 mg/kg/day, 10 mg/kg/day, GD 17",11200 ng·h/mL
same,Cmax,[3]; [7],387 ng/mL
same,AUC(0-t),[3]; [7],2570 ng·h/mL
same,Cmax,[3]; [8],397 ng/mL
same,AUC(0-t),[3]; [8],2620 ng·h/mL
same,AUC(0-t),"[3]; po, 10 mg/kg/day, 10 mg/kg/day, GD 6",10900 ng·h/mL
same,Cmax,"[3]; po, 10 mg/kg/day, 10 mg/kg/day, GD 17",1300 ng/mL
same,Cmax,[3]; [9],1970 ng/mL
same,AUC(0-t),[3]; [9],19500 ng·h/mL
same,Cmax,[3]; [10],1890 ng/mL
same,AUC(0-t),[3]; [10],19700 ng·h/mL
same,Tmax,"[3]; po, 3 mg/kg/day, GD 6",2 h
same,Tmax,"[3]; po, 10 mg/kg/day, GD 6",2 h
same,Tmax,"[3]; po, 20 mg/kg/day, GD 6",2 h
same,NOEL for developmental toxicity,[3]; oral gavage GD 6-17,10 mg/kg/day
same,NOAEL,"[4]; both sexes, single oral gavage, read-out: NOAEL for CNS toxicity",100 mg/kg
same,"mean rearing counts lower than control, 2-minute open field","[4]; female, 30 mg/kg",67.1%
same,"mean rearing counts lower than control, 2-minute open field","[4]; female, 100 mg/kg",78.6%
same,mean urination values higher than control,"[4]; male, 10 mg/kg",approximately 3 fold
same,mean urination values higher than control,"[4]; male, 30 mg/kg",approximately 3 fold
same,mean urination values higher than control,"[4]; male, 100 mg/kg",~5 fold
same,"mean rearing counts lower than control, 2-minute open field","[4]; male, 100 mg/kg",56.5%
same,QTc prolongation,[5]; 25 mg,no sustained or significant prolongation of QTc
same,gender difference in Cmax or AUC,[5]; 25 mg,no difference in either Cmax or AUC values between the two sexes
same,subjects with orthostatic hypotension,"[5]; all subjects, 25 mg",30%
same,AUC(0-inf),"[5]; female, Females (N = 38)",1590 ng·h/mL
same,AUC(0-t),"[5]; female, Females (N = 38)",1490 ng·h/mL
same,Cmax,"[5]; female, Females (N = 38)",291 ng/mL
same,Tmax,"[5]; female, Females (N = 38)",1.38 h
same,half-life,"[5]; female, Females (N = 38)",3.73 h
same,subjects with orthostatic hypotension,"[5]; females, 25 mg",28.9%
same,AUC(0-inf),"[5]; male, Males (N = 32)",1440 ng·h/mL
same,AUC(0-t),"[5]; male, Males (N = 32)",1360 ng·h/mL
same,Cmax,"[5]; male, Males (N = 32)",273 ng/mL
same,Tmax,"[5]; male, Males (N = 32)",1.27 h
same,half-life,"[5]; male, Males (N = 32)",3.41 h
same,subjects with orthostatic hypotension,"[5]; males, 25 mg",31.3%
same,"recovery at 2 h, 10 μM",in vitro,62%
same,"Mass balance, AP→BL",Caco-2 cells,62%
same,"Mass balance, BL→AP",Caco-2 cells,(88%)
same,NOAEL at 14 days,[6],100 mg/kg/day
